Measurements published in patent US20260115139A1, “Amino Acid-Containing Ionizable Lipids for the Delivery of Therapeutic Agents” (NanoVation Therapeutics Inc., priority 2022, published 2026).

Columns and labels:
[1] = tested on: liver; assay: In vivo delivery of luciferase mRNA LNPs, luminescence in liver; settings: LNP 50/10/38.5/1.5 mol % ionizable lipid/DSPC/chol/PEG-DMG, N/P=6, luciferase mRNA 1 mg/kg intravenous, CD-1 mice, 4 hours post-injection
Method: The mRNA dose was 1 mg/kg.

[2] = delivery of siRNA; background statement; cited from earlier work

Compound	luminescence intensity per mg liver compared with the MC3 benchmark (lipid 1) [1]	siRNA required compared with KC2 [2]
CCCCCCCCC(CCCCCC)C(=O)N(C)CC(=O)OCCCCCC1(CCCCCOC(=O)CN(C)C(=O)C(CCCCCC)CCCCCCCC)OCC(CCOC(=O)CCCN(C)C)O1 (stereo not shown) [lipid 17, (4-(2-((4-(dimethylamino)butanoyl)oxy)ethyl)-1,3-dioxolane-2,2-diyl)bis(pentane-5,1-diyl) bis(2-(2-hexyl-N-methyldecanamido)acetate)]	higher	–
CCCCCCCCC(CCCCCC)C(=O)N(C)CC(=O)OCCCCCC(CCCCCOC(=O)CN(C)C(=O)C(CCCCCC)CCCCCCCC)OC(=O)CCCC(=O)OCCCN(C)C (stereo not shown) [lipid 19, 9,31-dihexyl-11,29-dimethyl-10,13,27,30-tetraoxo-14,26-dioxa-11,29-diazanonatriacon-tan-20-yl (3-(dimethylamino)propyl) glutarate]	higher	–
CCCCC/C=C\C/C=C\CCCCCCCCC(CCCCCCCC/C=C\C/C=C\CCCCC)OC(=O)CCCN(C)C [lipid 1]	–	about 3 times less
CCCCCCCCCC(=O)OCCCCCC(CCCCCOC(=O)CN(C)C(=O)CC(CCCCCC)CCCCCCCC)N(C)CCCCO (stereo not shown) [lipid 33, 11-((N-(3-Hexylundecanoyl)-N-methylglycyl)oxy)-6-((4-hydroxybutyl)(methyl)-amino)-undecyl decanoate]	higher	–
CCCCCCCCC(CCCCCC)C(=O)OCCCCCC(CCCCCOC(=O)CN(C)C(=O)CC(CCCCCCC)CCCCCCC)N(C)CCCCO (stereo not shown) [lipid 25, 11-((N-(3-Heptyldecanoyl)-N-methylglycyl)oxy)-6-((4-hydroxybutyl)(methyl)amino)-undecyl 2-hexyldecanoate]	higher	–
CCCCCCCCC(CCCCCC)C(=O)OCCCCCC(CCCCCOC(=O)CN(C)C(=O)C(CCCCCC)CCCCCCCC)N(C)CCCO (stereo not shown) [lipid 23, 11-((N-(2-Hexyldecanoyl)-N-methylglycyl)oxy)-6-((3-hydroxypropyl)(methyl)amino)-undecyl 2-hexyldecanoate]	higher	–
CCCCCCCCC(CCCCCC)C(=O)OCCCCCC(CCCCCOC(=O)CN(C)C(=O)C(CCCCCC)CCCCCCCC)OC(=O)CCCN(C)C (stereo not shown) [lipid 6, 6-((4-(Dimethylamino)butanoyl)oxy)-11-((N-(2-hexyldecanoyl)-N-methylglycyl)oxy)-undecyl 2-hexyldecanoate]	higher	–
CCCCCCCCC(CCCCCC)C(=O)OCCCCCC(CCCCCOC(=O)CN(C)C(=O)C(CCCCCC)CCCCCCCC)N(C)CCO (stereo not shown) [lipid 24, 11-((N-(2-Hexyldecanoyl)-N-methylglycyl)oxy)-6-((2-hydroxyethyl)(methyl)amino)-undecyl 2-hexyldecanoate]	higher	–
CCCCCCCCC(CCCCCC)CC(=O)N(C)CC(=O)OCCCCCC(CCCCCOC(=O)C(CCCCCC)CCCCCCCC)N(C)CCCCO (stereo not shown) [lipid 27, 11-((N-(3-Hexylundecanoyl)-N-methylglycyl)oxy)-6-((4-hydroxybutyl)(methyl)-amino)-undecyl 2-hexyldecanoate]	higher	–
CCCCCCCCC(CCCCCC)C(=O)OCCCCCC(CCCCCO)N(C)CCCCOC(=O)CN(C)C(=O)C(CCCCCC)CCCCCCCC (stereo not shown) [lipid 36, 6-((4-((N-(2-Hexyldecanoyl)-N-methylglycyl)oxy)butyl)(methyl)amino)-11-hydroxy-undecyl 2-hexyldecanoate]	higher	–
